Source: paper PMC6635953 (Journal of medicinal chemistry, 2019)

Key:
HpMTAN = target: T1, HpMTAN (Helicobacter pylori, UniProt Q9ZMY2); experiment: Inhibition assay of HpMTAN; format: biochemical; settings: for preference for HpMTAN (specificity ratio Kd Hs/Hp): affinity for human MTAP relative to HpMTAN; for binding to the catalytic site of HpMTAN: at concentrations of 5 μM inhibitor
T1 sequence (Q9ZMY2 1-230): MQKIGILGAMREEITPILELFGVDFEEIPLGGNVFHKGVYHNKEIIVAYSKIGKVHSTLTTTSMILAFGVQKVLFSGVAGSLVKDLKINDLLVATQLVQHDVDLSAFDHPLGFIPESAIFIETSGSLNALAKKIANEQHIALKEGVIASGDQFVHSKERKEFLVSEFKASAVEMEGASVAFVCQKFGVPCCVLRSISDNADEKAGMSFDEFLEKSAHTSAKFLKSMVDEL

human MTAP = target: T2, human MTAP (Homo sapiens, UniProt Q13126); experiment: Inhibition assay of MTAP; format: biochemical; settings: for binding to the catalytic site of MTAP: at concentrations of 5 μM inhibitor
T2 sequence (Q13126 1-283): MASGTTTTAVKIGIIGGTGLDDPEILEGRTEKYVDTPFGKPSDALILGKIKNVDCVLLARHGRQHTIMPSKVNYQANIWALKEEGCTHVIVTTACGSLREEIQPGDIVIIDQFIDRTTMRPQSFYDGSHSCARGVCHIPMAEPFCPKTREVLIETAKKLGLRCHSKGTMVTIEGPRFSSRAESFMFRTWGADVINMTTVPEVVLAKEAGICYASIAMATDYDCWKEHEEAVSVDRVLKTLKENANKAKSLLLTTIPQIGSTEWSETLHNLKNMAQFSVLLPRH

In the case of `C#CCCCSC[C@H]1CN(Cc2c[nH]c3c(N)ncnc23)C[C@@H]1O` [compound 16], the Kd (HpMTAN) is reported as 0.026 to 0.055 nM and the “preference for HpMTAN (specificity ratio Kd Hs/Hp)” value (HpMTAN) is reported as 12- to 36 fold.

`CSC[C@H]1CN(Cc2c[nH]c3c(=O)[nH]ccc23)C[C@@H]1O` [compound 35] was tested, and the “binding to the catalytic site of MTAP” value (human MTAP) was “eliminates binding” and the “binding to the catalytic site of HpMTAN” value (HpMTAN) was “eliminates binding”.

`O=c1[nH]ccc2c(CN3C[C@H](CO)[C@@H](O)C3)c[nH]c12` [compound 34] was tested, and the “binding to the catalytic site of MTAP” value (human MTAP) was “eliminates binding” and the “binding to the catalytic site of HpMTAN” value (HpMTAN) was “eliminates binding”.

In the case of `C#CCSC[C@H]1CN(Cc2c[nH]c3c(N)ncnc23)C[C@@H]1O` [compound 15], the Kd (HpMTAN) is reported as 0.026 to 0.055 nM and the “preference for HpMTAN (specificity ratio Kd Hs/Hp)” value (HpMTAN) is reported as 12- to 36 fold.

Compound `CCCCn1cc(CCCSC[C@H]2CN(Cc3c[nH]c4c(N)ncnc34)C[C@@H]2O)nn1` [compound 30] has a Kd (HpMTAN) of 0.026 to 0.055 nM.

In the case of `CSC[C@H]1CN(Cc2c[nH]c3c(N)nccc23)C[C@@H]1O` [compound 8, 3-deazaMTDIA], the “increase of dissociation constant relative to MTDIA (1), MTAP” value (human MTAP; compared with 1 (86 pM)) is reported as over 100 fold and the “increase of dissociation constant relative to MTDIA (1), HpMTAN” value (HpMTAN; compared with 1 (86 pM)) is reported as over 100 fold.

With `Nc1ncnc2c(CN3C[C@H](CSCCCc4cn(Cc5ccccc5)nn4)[C@@H](O)C3)c[nH]c12` [compound 32] the Kd (HpMTAN) was 0.026 to 0.055 nM.
